What follows are compounds tested against T1, human EP2 receptors (Homo sapiens, UniProt P43116) (assay: cell-based cAMP TR-FRET assay, rightward shift of PGE2 concentration response curve (Schild KB), EP2). Conditions: Table 1; Schild KB from single antagonist concentration 1 μM; average of 2-3 measurements in duplicate; read-out: EP2 KB.
T1 construct: expressed in transfected cells
Procedure: KB value indicates the antagonist concentration required for a twofold rightward shift in the PGE2 dose-response curve. Thus, a lower KB value indicates a higher inhibitory potency.
The synthesis was carried out starting from commercially available 2-methyl indole or 2-trifluoromethyl indoles (11a-c), which on treatment with bromoacetonitrile provided intermediates (12a-c), which then were subjected to lithium aluminum hydride to reduce cyanide to amines. […] Synthesized derivatives were tested by using a cAMP-derived TR-FRET assay, at single concentration (1 μM) to observe a rightward shift of PGE2 (an EP2 agonist) concentration response curve in a C6G cell line that overexpresses human EP2 receptors.
A lower KB value indicates a higher inhibitory potency.
Intracellular cAMP was measured with a cell-based homogeneous time-resolved fluorescence resonance energy transfer (TR-FRET) method (Cisbio Bioassays). […] Endogenous cAMP produced by cells competes with labeled cAMP for binding to the cAMP antibody and thus reduces the FRET signal. Cells stably expressing human DP1, EP2, EP4, or IP receptors were seeded into 384-well plates in 30 μl complete medium (4,000 cells/well) and grown overnight. The medium was carefully withdrawn and 10 μl Hanks' Buffered Salt Solution (HBSS) (Hyclone) containing 20 μM rolipram was added into the wells to block phosphodiesterases. The cells were incubated at room temperature for 0.5-1 h and then treated with vehicle or test compound for 10 min before addition of increasing concentrations of appropriate agonist: BW245C for DP1, PGE2 for EP2 and EP4, or iloprost for IP. The cells were incubated at room temperature for 40 min, then lysed in 10 μl lysis buffer containing the FRET acceptor cAMP-d2 and 1 min later another 10 μl lysis buffer with anti-cAMP-Cryptate was added. After 60-90 min incubation at room temperature, the FRET signal was measured by an Envision 2103 Multilabel Plate Reader (PerkinElmer Life Sciences) with a laser excitation at 337 nm and dual emissions at 665 nm and 590 nm for d2 and Cryptate (50 s delay), respectively. The FRET signal was expressed as: F665/F590×10^4.

T1 sequence (P43116 whole entry): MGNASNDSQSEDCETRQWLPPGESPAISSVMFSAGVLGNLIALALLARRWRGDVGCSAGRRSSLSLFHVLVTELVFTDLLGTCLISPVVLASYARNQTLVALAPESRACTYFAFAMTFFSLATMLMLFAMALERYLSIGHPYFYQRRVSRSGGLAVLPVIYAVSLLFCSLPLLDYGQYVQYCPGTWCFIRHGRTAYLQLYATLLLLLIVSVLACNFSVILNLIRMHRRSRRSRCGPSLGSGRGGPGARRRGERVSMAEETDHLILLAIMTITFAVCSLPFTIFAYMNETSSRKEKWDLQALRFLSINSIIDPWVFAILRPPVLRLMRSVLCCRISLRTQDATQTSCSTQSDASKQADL

Q: COc1ccc(C(=O)NCCn2c(C)cc3ccccc32)cc1 [Compound 6c] was tested. Which Kb did it give?
A: Its Kb is 75.6 nM.

Q: Which Kb does the source give for CCNc1ccc(C(=O)NCCn2c(C)cc3ccccc32)cc1 [Compound 6d] here?
A: The Kb was 15.5 nM.

Q: How did the Kb turn out when CCCCN(CCCC)c1ccc(C(=O)NCCn2c(C)cc3ccccc32)cc1 [Compound 6h] was run?
A: The Kb was 68.8 nM.

Q: For Cc1cc2ccccc2n1CCNC(=O)c1ccc(O)cc1 [Compound 6j], which Kb is on record?
A: Its Kb is over 1000 nM.

Q: Cc1cc2ccccc2n1CCNC(=O)c1ccc(NC(=N)N)cc1 [Compound 6k] was tested. Which Kb did it give?
A: Its Kb is over 1000 nM.

Q: With CC(=O)Oc1ccc(C(=O)NCCn2c(C)cc3ccccc32)cc1 [Compound 6m] as the compound, how does the Kb read?
A: The Kb was 150 nM.

Q: Which Kb does the source give for CC(=O)Nc1ccc(C(=O)NCCn2c(C)cc3ccccc32)cc1 [Compound 6n] here?
A: The Kb was 97 nM.

Q: With Cc1cc2ccccc2n1CCNC(=O)c1ccc(NC(=O)c2ccccc2F)cc1 [Compound 6o] as the compound, how does the Kb read?
A: The Kb was 51 nM.

Q: Which Kb does the source give for Cc1cc2ccccc2n1CCNC(=O)c1ccc(C(=O)N(C)C)cc1 [Compound 6q] here?
A: Its Kb is over 1000 nM.

Q: With CCN(CC)C(=O)c1ccc(C(=O)NCCn2c(C)cc3ccccc32)cc1 [Compound 6r] as the compound, how does the Kb read?
A: The Kb was 800 nM.

Q: Which Kb does the source give for Cc1cc2ccccc2n1CCNC(=O)c1ccc(C(=O)OC(C)(C)C)cc1 [Compound 6t] here?
A: Its Kb is 100 nM.

Q: For Cc1cc2ccccc2n1CCNC(=O)c1ccc(S(N)(=O)=O)cc1 [Compound 6v], which Kb is on record?
A: Its Kb is 486 nM.

Q: For Cc1cc2ccccc2n1CCNC(=O)c1ccc(CNC(=O)OC(C)(C)C)cc1 [Compound 6x], which Kb is on record?
A: The Kb was 84 nM.

Q: With Cc1cc2ccccc2n1CCNC(=O)c1ccc(CN)cc1 [Compound 6y] as the compound, how does the Kb read?
A: The Kb was 690 nM.

Q: Cc1cc2ccccc2n1CCNC(=O)c1ccc(CCN)cc1 [Compound 6z] was tested. Which Kb did it give?
A: Its Kb is 1220 nM.

Q: Cc1cc2ccccc2n1CCNC(=O)c1ccc(N(C)C)c(F)c1 [Compound 7a] was tested. Which Kb did it give?
A: The Kb was 18.1 nM.

Q: With CC(=O)Nc1ccc(C(=O)NCCn2c(C)cc3ccccc32)cc1F [Compound 7b] as the compound, how does the Kb read?
A: The Kb was 530 nM.

Q: With COc1ccc(C(=O)NCCn2c(C)cc3ccccc32)cc1F [Compound 7c] as the compound, how does the Kb read?
A: The Kb was 86.8 nM.

Q: With CCN(CC)c1ccc(C(=O)NCCn2c(C)cc3ccccc32)cc1F [Compound 7d] as the compound, how does the Kb read?
A: Its Kb is 4.6 nM.

Q: CCN(CC)c1ccc(C(=O)NCCn2c(C)cc3ccccc32)cc1C(F)(F)F [Compound 7e] was tested. Which Kb did it give?
A: Its Kb is 310 nM.

Q: For CCNc1ccc(C(=O)NCCn2c(C)cc3ccccc32)cc1C(F)(F)F [Compound 7f], which Kb is on record?
A: The Kb was 20.2 nM.

Q: How did the Kb turn out when CCN(CC)c1ccc(C(=O)NCCn2c(C)cc3ccccc32)cc1OC [Compound 7g] was run?
A: The Kb was 61.2 nM.

Q: With Cc1cc2ccccc2n1CCNC(=O)c1ccc(C#N)c(F)c1 [Compound 7h] as the compound, how does the Kb read?
A: Its Kb is 140 nM.

Q: How did the Kb turn out when Cc1cc2ccccc2n1CCNC(=O)c1ccc(C#N)cc1F [Compound 7i] was run?
A: The Kb was 280 nM.

Q: For Cc1cc2ccccc2n1CCNC(=O)c1ccc(N2CCC(C)CC2)cc1 [Compound 7l], which Kb is on record?
A: The Kb was 30.3 nM.

Q: Which Kb does the source give for CCOC(=O)C1CCN(c2ccc(C(=O)NCCn3c(C)cc4ccccc43)cc2)CC1 [Compound 7m] here?
A: Its Kb is 500 nM.

Q: How did the Kb turn out when Cc1cc2ccccc2n1CCNC(=O)c1ccc(N2CCN(C)CC2)cc1 [Compound 7q] was run?
A: The Kb was 64 nM.

Q: How did the Kb turn out when Cc1cc2ccccc2n1CCNC(=O)c1cccc(N2CCN(C)CC2)c1 [Compound 7r] was run?
A: Its Kb is 770 nM.

Q: For Cc1cc2ccccc2n1CCNC(=O)c1cccc(N2CCOCC2)c1 [Compound 7s], which Kb is on record?
A: The Kb was over 1000 nM.

Q: Which Kb does the source give for Cc1cc2ccccc2n1CCNC(=O)c1ccc(N2CCCN(C)CC2)cc1 [Compound 7v] here?
A: Its Kb is 148 nM.

Q: How did the Kb turn out when Cc1cc2ccccc2n1CCNC(=O)c1ccc(-n2cnnn2)cc1 [Compound 7x] was run?
A: Its Kb is 42.2 nM.

Q: With Cc1cc2ccccc2n1CCNC(=O)c1ccc(-n2nn[nH]c2=S)cc1 [Compound 7y] as the compound, how does the Kb read?
A: Its Kb is 32.2 nM.

Q: How did the Kb turn out when Cc1cc2ccccc2n1CCNC(=O)c1ccc(C2CCCCC2)cc1 [Compound 8b] was run?
A: The Kb was 120 nM.

Q: How did the Kb turn out when Cc1cc2ccccc2n1CCNC(=O)c1ccc(N2CCNCC2)cc1 [Compound 8c] was run?
A: Its Kb is 410 nM.

Q: How did the Kb turn out when CC(=O)N1CCN(c2ccc(C(=O)NCCn3c(C)cc4ccccc43)cc2)CC1 [Compound 8d] was run?
A: The Kb was 50.2 nM.

Q: How did the Kb turn out when Cc1cc2ccccc2n1CCNC(=O)c1ccc2[nH]nnc2c1 [Compound 8e] was run?
A: The Kb was 87.5 nM.

Q: Which Kb does the source give for Cc1cc2ccccc2n1CCNC(=O)c1ccc2[nH]c(=S)[nH]c(=O)c2c1 [Compound 8f] here?
A: Its Kb is 84.1 nM.

Q: With Cc1cc2ccccc2n1CCNC(=O)c1ccc(C2CCCN(C(=O)OC(C)(C)C)C2)cc1 (stereo not drawn) [Compound 8g] as the compound, how does the Kb read?
A: The Kb was 95 nM.

Q: Which Kb does the source give for Cc1cc2ccccc2n1CCNC(=O)c1ccc(C2CCCNC2)cc1 (stereo not drawn) [Compound 8h] here?
A: Its Kb is over 1000 nM.

Q: Which Kb does the source give for Cc1cc2ccccc2n1CCNC(=O)c1ccc(OC2CCNCC2)cc1 [Compound 8i] here?
A: Its Kb is over 1000 nM.

Q: Cc1cc2ccccc2n1CCNC(=O)c1ccc(CN2CCOCC2)cc1 [Compound 8j] was tested. Which Kb did it give?
A: Its Kb is 970 nM.

Q: For Cc1cc2ccccc2n1CCNC(=O)c1ccc(CN2CCN(C)CC2)cc1 [Compound 8k], which Kb is on record?
A: Its Kb is over 1000 nM.

Q: How did the Kb turn out when Cc1cc2ccccc2n1CCNC(=O)c1cnc(N)nc1 [Compound 8l] was run?
A: The Kb was over 1000 nM.

Q: For Cc1cc2ccccc2n1CCNC(=O)c1cccnc1N [Compound 8p], which Kb is on record?
A: Its Kb is 520 nM.

Q: How did the Kb turn out when Cc1cc2ccccc2n1CCNC(=O)C1CCC(c2ncccn2)CC1 (stereo not drawn) [Compound 8q] was run?
A: The Kb was 380 nM.

Q: Which Kb does the source give for Cc1cc2cc(F)ccc2n1CCNC(=O)c1ccc(N2CCOCC2)cc1 [Compound 8r] here?
A: Its Kb is 14.9 nM.

Q: Which Kb does the source give for Cc1cc2cc(F)ccc2n1CCNC(=O)c1ccc(N2CCN(C)CC2)c(F)c1 [Compound 8s] here?
A: Its Kb is 62.2 nM.

Q: CCN(CC)c1ccc(C(=O)NCCn2c(C(F)(F)F)cc3ccccc32)cc1 [Compound 8t] was tested. Which Kb did it give?
A: Its Kb is 150 nM.

Q: O=C(NCCn1c(C(F)(F)F)cc2ccccc21)c1ccc(N2CCOCC2)cc1 [Compound 8u] was tested. Which Kb did it give?
A: Its Kb is 120 nM.

Q: How did the Kb turn out when CCN(CC)c1ccc(C(=O)NCCn2c(C)nc3ccccc32)cc1 [Compound 8v] was run?
A: The Kb was 190 nM.

Q: Which Kb does the source give for CCN(CC)c1ccc(C(=O)NCCn2cnc3ccccc32)cc1 [Compound 8w] here?
A: Its Kb is over 1000 nM.

Q: Which Kb does the source give for CCN(CC)C(=O)c1ccc(C(=O)NCCc2c(C)[nH]c3ccccc23)cc1 [Compound 8y] here?
A: The Kb was over 1000 nM.

Q: Which Kb does the source give for Cc1[nH]c2ccccc2c1CCNC(=O)c1ccc(N2CCCCC2)cc1 [Compound 9b] here?
A: Its Kb is 19.8 nM.

Q: Cc1[nH]c2ccccc2c1CCNC(=O)c1ccc(N2CCOCC2)c(F)c1 [Compound 9d] was tested. Which Kb did it give?
A: The Kb was 66 nM.

Q: How did the Kb turn out when Cc1[nH]c2ccccc2c1CCNC(=O)c1ccc(N2CCN(C)CC2)cc1 [Compound 9e] was run?
A: The Kb was 135 nM.

Q: CCNc1ncc(C(=O)NCCc2c(C)[nH]c3ccccc23)cn1 [Compound 9f] was tested. Which Kb did it give?
A: Its Kb is 155 nM.

Q: With Cc1[nH]c2ccccc2c1CCNC(=O)c1cnc(N2CCOCC2)nc1 [Compound 9g] as the compound, how does the Kb read?
A: The Kb was 280 nM.

Q: How did the Kb turn out when Cc1cc2ccccc2n1CCNC(=O)c1nc2cc(F)ccc2[nH]1 [Compound 9h] was run?
A: Its Kb is 130 nM.

Same assay, conditions: Table 3; Schild KB from single concentration 1 μM; read-out: EP2 KB

Q: With COc1cc(/C=C/C(=O)N2CCCC(c3c(C)[nH]c4ccccc34)C2)cc(OC)c1OC (stereo not drawn) [Compound 16n] as the compound, how does the Kb read?
A: Its Kb is over 1000 nM.

Q: Which Kb does the source give for COc1cc(/C=C/C(=O)N2CCC(c3c(C)[nH]c4ccccc34)C2)cc(OC)c1OC (stereo not drawn) [Compound 16o] here?
A: The Kb was over 1000 nM.

Same assay, conditions: Table 6

Q: How did the “EP2 KB” value turn out when Cc1nc2ccccc2c(C(=O)NCCn2c(C)cc3ccccc32)c1O [TG7-276] was run?
A: Its value is “Inactive”.

Q: How did the “EP2 KB” value turn out when Cc1cc2ccccc2n1CCNC(=O)c1ccc(OCCN(C)C)c(OCCN(C)C)c1 [TG8-76-2] was run?
A: The value was “Inactive”.

Same assay, conditions: Table 6; read-out: EP2 KB

Q: How did the Kb turn out when O=C(NCCn1c(C(F)(F)F)cc2ccccc21)c1cc(-c2ccc(F)cc2)n[nH]1 [TG7-266] was run?
A: Its Kb is 8800 nM.

Q: For Cc1cc(C(=O)NCCn2c(C)cc3ccccc32)n(Cc2ccccc2)n1 [TG7-274], which Kb is on record?
A: The Kb was 1330 nM.

Q: With Cc1ccc2c(O)c(C(=O)NCCn3c(C)cc4ccccc43)cnc2n1 [TG7-275] as the compound, how does the Kb read?
A: Its Kb is 1810 nM.

Q: For Cc1cc2ccccc2n1CCNC(=O)c1cc(CC(C)C)no1 [TG7-277], which Kb is on record?
A: The Kb was 172 nM.

Q: Which Kb does the source give for Cc1cc2ccccc2n1CCNC(=O)c1ccc(N2CCC(C(=O)N(C)C)CC2)cc1 [TG8-64] here?
A: Its Kb is 190 nM.

Q: With COc1cc(C(=O)NCCn2c(C)cc3ccccc32)ccc1OCCN(C)C [TG8-75] as the compound, how does the Kb read?
A: The Kb was 1000 nM.

Same assay, conditions: read-out: EP2 KB

Q: With Cc1cc2ccccc2n1CCNC(=O)c1cccc(S(N)(=O)=O)c1 [Compound 6w] as the compound, how does the Kb read?
A: The Kb was over 1000 nM.

— US11077120B2, “Prostaglandin receptor EP2 antagonists, derivatives, compositions, and uses related thereto” (Emory University, priority 2014, dated 2021)
